From patent US12624018B1, “Inhibitors of RIPK2 and medical uses thereof” (Odyssey Therapeutics, Inc., priority 2022, dated 2026)

Assays:
RIPK2 enzyme = target: T1, RIPK2 enzyme (Homo sapiens, UniProt O43353); test: RIPK2 inhibition (ADP-Glo Kinase Assay); format: biochemical; conditions: RIPK2 5 nM, ATP 150 μM, MBP substrate, read-out: RIPK2 IC50
T1 construct: purchased Carna 09-128
Procedure, shortened: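 Human RIPK2 (5 nM) preincubated with compound 30 min at room temperature in 50 mM HEPES pH 7.5, 10 mM MgCl2, 2 mM DTT, 1 mM EGTA, 0.01% Brij-35, 0.05% BSA; native swine MBP as substrate. ADP formed quantified by ADP-Glo luminescence; percent inhibition relative to DMSO and no-enzyme controls.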

human NOD2 signaling = test: Inhibition of human NOD2 signaling in HEK-Blue-hNOD2 cells (L18-MDP stimulated, SEAP reporter); format: cell-based; conditions: Homo sapiens, HEK-Blue hNOD2, HEK-Blue-hNOD2 cells, NOD2 ligand stimulation, SEAP reporter; read-out: hNOD2 IC50
Procedure, shortened: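 HEK-Blue-hNOD2 cells (HEK293 with NOD2 and SEAP reporter), 12500/well, treated with 10-point 3-fold compound dilutions plus L18-MDP 0.5 ng/mL final, 24 h at 37 °C. Supernatant SEAP read with QUANTI-Blue after 3 h at 620 nm; IC50 by 4-parameter fit vs DMSO±L18-MDP controls.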

[1] = target: T2, RIPK2 and XIAP protein-protein interaction (Homo sapiens, UniProt O43353); test: Inhibition of the interaction of RIPK2 with XIAP (NanoBRET in HEK293T cells); format: cell-based; conditions: RIPK2 HaloTag / XIAP NanoLuc, read-out: NanoBRET Scaffolding IC50
T2 construct: the N-terminus of full-length RIPK2 was appended with the HaloTag fusion protein; expressed in transfected cells; host or cells: HEK293T
T2 sequence (O43353 whole entry, the tested form may be a part): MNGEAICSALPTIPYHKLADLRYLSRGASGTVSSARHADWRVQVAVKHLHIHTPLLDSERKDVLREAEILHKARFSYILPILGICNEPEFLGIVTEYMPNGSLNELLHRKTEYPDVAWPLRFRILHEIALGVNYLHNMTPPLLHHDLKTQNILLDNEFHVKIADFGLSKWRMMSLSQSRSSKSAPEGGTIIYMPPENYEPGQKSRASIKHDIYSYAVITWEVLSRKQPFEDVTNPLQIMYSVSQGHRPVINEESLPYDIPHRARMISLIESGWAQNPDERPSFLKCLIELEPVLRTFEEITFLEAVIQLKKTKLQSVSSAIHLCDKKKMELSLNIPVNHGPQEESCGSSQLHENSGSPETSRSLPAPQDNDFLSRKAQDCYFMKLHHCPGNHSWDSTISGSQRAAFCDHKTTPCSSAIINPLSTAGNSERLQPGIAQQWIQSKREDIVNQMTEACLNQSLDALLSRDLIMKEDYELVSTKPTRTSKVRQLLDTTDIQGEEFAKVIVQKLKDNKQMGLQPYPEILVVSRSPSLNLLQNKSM
Procedure, shortened: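 HEK293T cells transiently co-transfected with HaloTag-RIPK2 (N-terminal) and XIAP-NanoLuc (C-terminal) full-length fusions, grown 24 h at 37° C. in Opti-MEM with 4% FBS. Compounds tested as 10-point 3-fold dilutions; NanoBRET ratio taken as 618 nm acceptor over 460 nm donor emission.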

T1 sequence (O43353 1-299 limits assumed): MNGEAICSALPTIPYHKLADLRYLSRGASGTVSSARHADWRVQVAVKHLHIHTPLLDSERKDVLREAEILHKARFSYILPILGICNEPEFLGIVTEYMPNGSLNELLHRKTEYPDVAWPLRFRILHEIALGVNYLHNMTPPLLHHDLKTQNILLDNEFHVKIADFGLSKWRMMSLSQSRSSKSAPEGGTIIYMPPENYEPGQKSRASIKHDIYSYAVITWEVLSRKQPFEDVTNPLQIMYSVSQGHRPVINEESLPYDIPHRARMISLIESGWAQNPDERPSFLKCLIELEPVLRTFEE

SMILES | IC50 (RIPK2 enzyme) | IC50 (human NOD2 signaling) | IC50 [1]
CCS(=O)(=O)c1ccc2nccc(Oc3ccc(CC(=O)Nc4cnn(C(C)(C)C)c4)cc3C)c2c1 [Compound 99, N-(1-(tert-butyl)-1H-pyrazol-4-yl)-2-(4-((6-(ethylsulfonyl)quinolin-4-yl)oxy)-3-methylphenyl)acetamide] | < 2.5 nM | 0.3 nM | 15 nM
Cc1cc(CC(=O)Nc2cnn(C(C)(C)C)c2)c(F)cc1Oc1ccnc2ccc(S(C)(=O)=O)cc12 [Compound 113, N-(1-(tert-butyl)-1H-pyrazol-4-yl)-2-(2-fluoro-5-methyl-4-((6-(methylsulfonyl)quinolin-4-yl)oxy)phenyl)acetamide] | < 2.5 nM | 2.2 nM | 33 nM
Cc1cc(CC(=O)Nc2cnn(C(C)(C)C)c2)c(F)cc1Oc1ccnc2ccc(C(N)=O)cc12 [Compound 359, 4-(4-(2-((1-(tert-butyl)-1H-pyrazol-4-yl)amino)-2-oxoethyl)-5-fluoro-2-methyl-phenoxy) quinoline-6-carboxamide] | < 2.5 nM | 0.5 nM | 14 nM
CNC(=O)c1ccc2nccc(Oc3cc(F)c(CC(=O)Nc4cnn(C(C)(C)C)c4)cc3C)c2c1 [Compound 360, 4-(4-(2-((1-(tert-butyl)-1H-pyrazol-4-yl)amino)-2-oxoethyl)-5-fluoro-2-methylphenoxy)-N-methylquinoline-6-carboxamide] | < 2.5 nM | 0.2 nM | 8 nM
Cc1cc(CC(=O)Nc2cnn(C(C)(C)C)c2)cc(C)c1Oc1ccnc2cc(F)c(C(N)=O)cc12 [Compound 581, 4-(4-(2-((1-(tert-butyl)-1H-pyrazol-4-yl)amino)-2-oxoethyl)-2,6-dimethylphenoxy)-7-fluoroquinoline-6-carboxamide] | < 2.5 nM | 1.2 nM | 61.4 nM

Continued, values first:

IC50 (RIPK2 enzyme) | IC50 (human NOD2 signaling) | IC50 [1] | SMILES
< 2.5 nM | 9 nM | 54 nM | CC(C)(C)n1cc(NC(=O)Cc2ccc(Oc3ccnc4ccc(S(C)(=O)=O)cc34)cc2F)cn1 [Compound 38, N-(1-(tert-butyl)-1H-pyrazol-4-yl)-2-(2-fluoro-4-((6-(methylsulfonyl)quinolin-4-yl)oxy)phenyl)acetamide]
< 2.5 nM | 5.9 nM | 29 nM | Cc1cc(CC(=O)Nc2cnn(C(C)(C)C)c2)ccc1Oc1ccnc2ccc(OC3CCNCC3)cc12 [Compound 83, N-(1-(tert-butyl)-1H-pyrazol-4-yl)-2-(3-methyl-4-((6-(piperidin-4-yloxy)quinolin-4-yl)oxy)phenyl) acetamide]
< 2.5 nM | 0.7 nM | 12 nM | Cc1cc(CC(=O)Nc2cnn(C(C)(C)C)c2)ccc1Oc1ccnc2ccc(S(C)(=O)=O)cc12 [Compound 86, N-(1-(tert-butyl)-1H-pyrazol-4-yl)-2-(3-methyl-4-((6-(methylsulfonyl)quinolin-4-yl)oxy)phenyl)acetamide]
< 2.5 nM | 0.5 nM | 12 nM | Cc1c(Oc2ccnc3ccc(S(C)(=O)=O)cc23)ccc(CC(=O)Nc2cnn(C(C)(C)C)c2)c1F [Compound 91, N-(1-(tert-butyl)-1H-pyrazol-4-yl)-2-(2-fluoro-3-methyl-4-((6-(methylsulfonyl)quinolin-4-yl)oxy)phenyl)acetamide]
